Where a name gives a salt, the structure may show the parent alone.

This assay deals with T1, proton pump (H+/K+-ATPase) (Sus scrofa, UniProt P19156).
T1 construct: Gastric vesicles were prepared from hog stomach via centrifugal separation; from tissue; host or cells: hog stomach (gastric vesicles, method of Rabon et al. 1988)
T1 sequence (P19156 whole entry): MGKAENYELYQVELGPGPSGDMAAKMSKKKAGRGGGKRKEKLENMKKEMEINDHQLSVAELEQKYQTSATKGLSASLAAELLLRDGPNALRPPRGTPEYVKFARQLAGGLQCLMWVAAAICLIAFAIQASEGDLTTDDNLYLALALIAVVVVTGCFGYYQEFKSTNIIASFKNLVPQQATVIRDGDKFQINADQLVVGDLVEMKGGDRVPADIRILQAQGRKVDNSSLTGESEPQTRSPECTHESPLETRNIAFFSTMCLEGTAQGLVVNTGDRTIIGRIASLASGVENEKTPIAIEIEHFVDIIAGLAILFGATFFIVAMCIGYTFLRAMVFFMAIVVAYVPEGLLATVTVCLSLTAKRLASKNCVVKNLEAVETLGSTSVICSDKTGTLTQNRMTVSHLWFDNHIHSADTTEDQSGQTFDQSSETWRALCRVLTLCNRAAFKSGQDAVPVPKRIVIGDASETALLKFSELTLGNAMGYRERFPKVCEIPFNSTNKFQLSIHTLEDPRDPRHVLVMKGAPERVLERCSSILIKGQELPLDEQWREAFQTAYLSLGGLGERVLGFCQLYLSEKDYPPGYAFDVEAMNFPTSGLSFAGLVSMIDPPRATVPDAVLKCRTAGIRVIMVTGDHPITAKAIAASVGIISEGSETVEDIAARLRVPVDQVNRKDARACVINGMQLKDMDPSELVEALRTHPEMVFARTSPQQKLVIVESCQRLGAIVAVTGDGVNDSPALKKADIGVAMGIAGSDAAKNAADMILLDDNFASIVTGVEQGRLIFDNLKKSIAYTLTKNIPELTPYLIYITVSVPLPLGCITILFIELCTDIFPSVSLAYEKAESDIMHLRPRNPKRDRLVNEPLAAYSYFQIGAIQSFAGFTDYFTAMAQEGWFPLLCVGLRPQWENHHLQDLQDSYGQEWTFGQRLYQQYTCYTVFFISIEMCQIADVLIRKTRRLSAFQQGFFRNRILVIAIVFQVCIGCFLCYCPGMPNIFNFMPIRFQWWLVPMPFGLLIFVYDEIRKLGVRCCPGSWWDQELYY
T1 sequence (P18434 whole entry partner): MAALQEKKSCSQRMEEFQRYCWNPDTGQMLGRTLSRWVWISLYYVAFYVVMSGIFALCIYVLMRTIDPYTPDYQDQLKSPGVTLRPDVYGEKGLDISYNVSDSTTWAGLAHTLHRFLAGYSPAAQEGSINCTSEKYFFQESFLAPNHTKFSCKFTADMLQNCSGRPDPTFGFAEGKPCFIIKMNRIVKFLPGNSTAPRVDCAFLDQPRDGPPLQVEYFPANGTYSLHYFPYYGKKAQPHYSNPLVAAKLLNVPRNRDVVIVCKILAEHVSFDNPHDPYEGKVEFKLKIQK
In words: Measurement of inhibitory effects on proton pump (H+/K+-ATPase) activities. It is filed as biochemical. As to conditions: hog gastric vesicles, K+-specific H+/K+-ATPase activity, Tris-HCl buffer pH 7.4, 37° C. for 40 minutes, malachite green Pi readout. The procedure: 1) Preparation of Gastric Vesicles
Gastric vesicles were prepared from hog stomach via centrifugal separation (Edd C. Rabon et al., Preparation of Gastric H^+,K^+-ATPase, Methods in enzymology, vol. 157 Academic Press Inc., (1988), pp. 649-654). The protein contents of the thus prepared gastric vesicles were quantitated by Bicinchoninic Acid (BCA) kit.
2) Measurement of Inhibitory Effects on Proton Pump (H^+/K^+-ATPase) Activities
The inhibitory effects of the compounds of the present invention against proton pump activities were measured using a 96-well plate. In this assay, the K^+-specific H^+/K^+-ATPase activities were calculated based on the difference between the H^+/K^+-ATPase activity in the presence of K^+ and that in the absence of K. In the 96-well plate, 0.5% dimethyl sulfoxide (DMSO) in buffer was added to the negative and positive control groups, and the diluted compounds of the present invention were added to the test groups. All assays were performed in a reaction volume of 100 μl at room temperature. The reaction buffer solution (60 mmol/l Tris-HCl buffer, pH 7.4) including the hog gastric vesicles was added with DMSO and the compounds at various concentrations, and then further added with 10 μl of 10 mmol/1 adenosine triphosphate Tris buffer solution (60 mmol/l Tris-HCl buffer, pH 7.4) to initiate an enzyme reaction. […] The amount of monophosphate (Pi) in the reaction was measured at 570 nm using a micro plate reader (FLUOstar Omega, BMG LABTECH). The inhibition rates (%) were determined from the activity values of control groups and those of test compounds at various concentrations, and the […] of the test compounds were calculated based on the respective inhibition value (%) using the Logistic 4-parameter function of Sigmaplot 8.0 program.
As usually defined, the IC50 is the concentration needed to halve the response being measured. Take `COc1ccc(Nc2ccc3c(CN(C)C)cn(S(=O)(=O)c4cccc(C(F)(F)F)c4)c3c2)c(Cl)n1` [Example 319, N-(2-chloro-6-methoxypyridin-3-yl)-3-((dimethylamino)methyl)-1-((3-(trifluoromethyl)phenyl)sulfonyl)-1H-indol-6-amine]: half-maximal inhibition (IC50) required 1.24 µM.
`CNCc1cn(S(=O)(=O)c2cccc(OC)c2)c2cc(Cc3ccc(C)c(F)c3F)ccc12` [Example 289, 1-(6-(2,3-difluoro-4-methylbenzyl)-1-((3-methoxyphenyl)sulfonyl)-1H-indol-3-yl)-N-methylmethanamine] displayed an IC50 of 0.78 µM. Against the preceding compound, the IC50 is about 1.6-fold lower.
`CNCc1cn(S(=O)(=O)c2cccc(OC(F)F)c2)c2cc(Nc3ccc(C)nc3F)ccc12` [Example 181, 1-((3-(difluoromethoxy)phenyl)sulfonyl)-N-(2-fluoro-6-methylpyridin-3-yl)-3-((methylamino)methyl)-1H-indol-6-amine hydrochloride] showed an IC50 of 1.28 µM. This IC50 lies about 1.6-fold higher than the previous one.
Next, `CNCc1cn(S(=O)(=O)c2cccc(OC(F)(F)F)c2)c2cc(Cc3ccc(C)cc3Cl)ccc12` [Example 305, 1-(6-(2-chloro-4-methylbenzyl)-1-((3-(trifluoromethoxy)phenyl)sulfonyl)-1H-indol-3-yl)-N-methylmethanamine]: 0.61 µM; `CNCc1cn(S(=O)(=O)c2cccc(OC)c2)c2cc(Nc3ccc(C)cc3Cl)ccc12` [Example 163, N-(2-chloro-4-methylphenyl)-1-((3-methoxyphenyl)sulfonyl)-3-((methylamino)methyl)-1H-indol-6-amine hydrochloride]: 0.14 µM.
Then `CNCc1cn(S(=O)(=O)c2cccnc2)c2cc(Nc3ccc(C)cc3Cl)cnc12` [Example 345, N-(2-chloro-4-methylphenyl)-3-((methylamino)methyl)-1-(pyridin-3-ylsulfonyl)-1H-pyrrolo[3,2-b]pyridin-6-amine hydrochloride], with 0.12 µM.
Next, `CN(C)C(=O)c1cn(S(=O)(=O)c2cccnc2)c2cc(Nc3ccc(OC(F)(F)F)cc3Cl)ccc12` [Example 327, 6-((2-chloro-4-(trifluoromethoxy)phenyl)amino)-N,N-dimethyl-1-(pyridin-3-ylsulfonyl)-1H-indol-3-carboxamide]: 40 µM; `CNCc1cn(S(=O)(=O)c2cccnc2)c2cc(Nc3c(F)cc(Br)cc3Br)ccc12` [Example 93, N-(2,4-dibromo-6-fluorophenyl)-3-((methylamino)methyl)-1-(pyridin-3-ylsulfonyl)-1H-indol-6-amine hydrochloride]: 2.22 µM; `CNCc1cn(S(=O)(=O)c2cccc(OC)c2)c2cc(Nc3ccc(OC)cc3F)ccc12` [Example 167, N-(2-fluoro-4-methoxyphenyl)-1-((3-methoxyphenyl)sulfonyl)-3-((methylamino)methyl)-1H-indol-6-amine hydrochloride]: 0.61 µM.
`CNCc1cn(S(=O)(=O)c2cccnc2)c2cc(Nc3cncc(Br)c3)ccc12` [Example 110, N-(5-bromopyridin-3-yl)-3-((methylamino)methyl)-1-(pyridin-3-ylsulfonyl)-1H-indol-6-amine hydrochloride]: the IC50 was 5.04 µM.
Next, `CNCc1cn(S(=O)(=O)c2cccc(Cl)c2)c2cc(Cc3ccc(OC)nc3Cl)ccc12` [Example 293, 1-(6-((2-chloro-6-methoxypyridin-3-yl)methyl)-1-((3-chlorophenyl)sulfonyl)-1H-indol-3-yl)-N-methylmethanamine]: 0.55 µM; `CNCc1cn(S(=O)(=O)c2cccc(OC(F)F)c2)c2cc(-c3ccnc(F)c3)ccc12` [Example 262, 1-(1-((3-(difluoromethoxy)phenyl)sulfonyl)-6-(2-fluoropyridin-4-yl)-1H-indol-3-yl)-N-methylmethanamine hydrochloride]: 8.44 µM; `CNCc1cn(S(=O)(=O)c2cccc(C(F)(F)F)c2)c2cc(Cc3ccc(OC)nc3Cl)ccc12` [Example 294, 1-(6-((2-chloro-6-methoxypyridin-3-yl)methyl)-1-((3-(trifluoromethyl)phenyl)sulfonyl)-1H-indol-3-yl)-N-methylmethanamine hydrochloride]: 0.63 µM.
For the compound `COc1ccc(Nc2ccc3c(CN4CCCC4)cn(S(=O)(=O)c4cccc(C(F)(F)F)c4)c3c2)c(Cl)n1` [Example 318, N-(2-chloro-6-methoxypyridin-3-yl)-3-(pyrrolidin-1-ylmethyl)-1-((3-(trifluoromethyl)phenyl)sulfonyl)-1H-indol-6-amine], 4.25 µM corresponded to half-maximal inhibition (IC50).
Next, `Cc1ccc(Nc2ccc3c(C(=O)N(C)C)cn(S(=O)(=O)c4cccnc4)c3c2)c(Cl)n1` [Example 330, 6-((2-chloro-6-methylpyridin-3-yl)amino)-N,N-dimethyl-1-(pyridin-3-ylsulfonyl)-1H-indol-3-carboxamide]: 22 µM.
`CNCc1cn(S(=O)(=O)c2cccnc2)c2cc(Cc3ccc(OC(F)(F)F)cc3C)ccc12` [Example 278, N-methyl-1-(6-(2-methyl-4-(trifluoromethoxy)benzyl)-1-(pyridin-3-ylsulfonyl)-1H-indol-3-yl)methanamine hydrochloride]: it took 1.97 µM to reach half-maximal inhibition (IC50).
`CNCc1cn(S(=O)(=O)c2cccc(OC(F)(F)F)c2)c2cc(Nc3ccc(OC(F)(F)F)cc3OC)ccc12` [Example 202, N-(2-methoxy-4-(trifluoromethoxy)phenyl)-3-((methylamino)methyl)-1-((3-(trifluoromethoxy)phenyl)sulfonyl)-1H-indol-6-amine hydrochloride] registered an IC50 of 0.58 µM.
`CNCc1cn(S(=O)(=O)c2cccnc2)c2cc(Nc3ccc(Oc4ccc(F)cc4)cc3)ccc12` [Example 18, N-(4-(4-fluorophenoxy)phenyl)-3-((methylamino)methyl)-1-(pyridin-3-ylsulfonyl)-1H-indol-6-amine hydrochloride] registered an IC50 of 1.3 µM. This IC50 lies about 2.2-fold higher than the previous one.
Then `CNCc1cn(S(=O)(=O)c2cccnc2)c2cc(Nc3ccc(C(C)(C)C)cc3)ccc12` [Example 14, N-(4-(tert-butyl)phenyl)-3-((methylamino)methyl)-1-(pyridin-3-ylsulfonyl)-1H-indol-6-amine hydrochloride], with 1.5 µM; and `CNCc1cn(S(=O)(=O)c2cccnc2)c2cc(Nc3c(C)cc(F)cc3C)ccc12` [Example 81, N-(4-fluoro-2,6-dimethylphenyl)-3-((methylamino)methyl)-1-(pyridin-3-ylsulfonyl)-1H-indol-6-amine hydrochloride], with 0.31 µM.
The compound `CNCc1cn(S(=O)(=O)c2cccc(OC(F)(F)F)c2)c2cc(Nc3ccc(OC(F)(F)F)cc3C)ccc12` [Example 200, N-(2-methyl-4-(trifluoromethoxy)phenyl)-3-((methylamino)methyl)-1-((3-(trifluoromethoxy)phenyl)sulfonyl)-1H-indol-6-amine hydrochloride] showed an IC50 of 0.9 µM.
The compound `CNCc1cn(S(=O)(=O)c2cccc(OC(F)F)c2)c2cc(Nc3ccc(OC)cc3F)ccc12` [Example 178, 1-((3-(difluoromethoxy)phenyl)sulfonyl)-N-(2-fluoro-4-methoxyphenyl)-3-((methylamino)methyl)-1H-indol-6-amine hydrochloride] registered an IC50 of 0.61 µM.
Then `CNCc1cn(S(=O)(=O)c2cccnc2)c2cc(Nc3ccncc3C(F)(F)F)ccc12` [Example 129, 3-((methylamino)methyl)-1-(pyridin-3-ylsulfonyl)-N-(3-(trifluoromethyl)pyridin-4-yl)-1H-indol-6-amine hydrochloride], with 10.2 µM; and `CNc1cn(S(=O)(=O)c2cccnc2)c2cc(Nc3ccc(C)cc3F)ccc12` [Example 333, N6-(2-fluoro-4-methylphenyl)-N3-methyl-1-(pyridin-3ylsulfonyl)-1H-indol-3,6-diamine hydrochloride], with 5.84 µM.
`CNCc1cn(S(=O)(=O)c2cccnc2)c2cc(-c3ccc(-c4ccccc4)cc3)ccc12` [Example 247, 1-(6-([1,1′-biphenyl]-4-yl)-1-(pyridin-3-ylsulfonyl)-1H-indol-3-yl)-N-methylmethanamine] came in with an IC50 of 4.15 µM. The IC50 values of the last two compounds are within 1.5-fold of each other.
Take `CNCc1cn(S(=O)(=O)c2cccnc2)c2cc(Nc3ccc(F)cc3C(F)(F)F)ccc12` [Example 26, N-(4-fluoro-2-(trifluoromethyl)phenyl)-3-((methylamino)methyl)-1-(pyridin-3-ylsulfonyl)-1H-indol-6-amine hydrochloride]: 0.18 µM corresponded to half-maximal inhibition (IC50). This IC50 is about 23-fold lower than that of the compound before.
Next, `CNCc1cn(S(=O)(=O)c2cccc(Cl)c2)c2cc(Nc3ccc(C)cc3F)ccc12` [Example 146, 1-((3-chlorophenyl)sulfonyl)-N-(2-fluoro-4-methylphenyl)-3-((methylamino)methyl)-1H-indol-6-amine hydrochloride]: 0.15 µM.
Then `CNCc1cn(S(=O)(=O)c2cccnc2)c2cc(Nc3c(C)cc(C)cc3C)ccc12` [Example 80, N-mesityl-3-((methylamino)methyl)-1-(pyridin-3-ylsulfonyl)-1H-indol-6-amine hydrochloride], with 0.17 µM.
